Measured values from patent publication US5116877A, “Pharmaceutical use for cinnamamide derivatives” (Taisho Pharmaceutical Co., Ltd., priority 1989, dated 1992).

Columns and labels:
[1] = test system: spontaneous motor activity; assay: Spontaneous motor activity test; format: in vivo, male ICR mice; settings: mouse
Method: Experiment 4 [Spontaneous motor activity test]
Six male ICR mice weighing 20-30 g were used as the test animals for each group. The test drugs [A: (E)-N-cyclopropyl-3-(3 chlorophenyl)-2-butenamide and B: (E)-N-cyclopropyl-3-(3-fluorophenyl)-2-butenamide] suspended in 0.4% aqueous carboxymethylcellulose solution were each administered orally to mice in the amounts of 50, 70.7 and 100 mg/kg (0.1 ml per 10 g of mouse). The control group were administered with 0.4% aqueous carboxymethylcellulose solution only. After 15 minute, mice were placed in ANIMEX apparatus (manufactured by Muromachi Kikai K.K.) to determine the spontaneous moter activity for 30 minutes

[2] = test system: mesocephalous decerebrate rididity; assay: Inhibition test of the mesocephalous decerebrate rigidity; format: in vivo, male Wistar rats; settings: rat
Method: Experiment 1 [Inhibition test of the mesocephalous decerebrate rididity]
The rigidity animals were prepared according to the method of Ono et al [Gen. Pharm., vol. 18, page 57-59 (1987)].
Four male Wistar rats weighing 250 to 350 g were used for each group. The animals were anesthetized with ethyl ether and fixed on a brain stereotaxic apparatus to break the midbrain bilaterally (APO, V-3, L ±1.5). The advanced rigidity occurred in the hind limb with awaking from the ethyl ether anesthesia. The test drugs [A; (E)-N-cyclopropyl-3-(3-chlorophenyl)-2-butenamide, B; (E)-N-cyclopropyl-3-(3-fluorophenyl)-2-butenamide and C; cinflumide] dissolved in propylene glycol were each administered intravenously in the amount of 5 mg/kg or 10 mg/kg (0.1 ml per 100 g of rat), and these test drugs suspended in 0.4% aqueous carboxymethylcellulose solution were each administered intraduodenally in the amount of 50 mg/kg (0.1 ml per 100 g of rat) to determine the inhibition time of the rigidity.

[3] = test system: Anemic Decerebrate rigidity; assay: Inhibition of anemic decerebrate rigidity; format: in vivo, male Wistar rats; settings: rat, in polyethylene glycol 400
Method: Experiment 2[Inhibition of Anemic Decerebrate rigidity]
The rigidity animals were prepared according to the method of Fukuda et al [Japan J. Pharmacol., vol. 24, page 810-813 (1974)].
Four male Wistar rats weighing 250 to 350 g were used for each group.
The animals were anesthetized with ethyl ether and carotid artery was ligated bilaterally. A round hole was digged in the suboccipital skeleton and the basal artery was coagulated using a bipolar electrocoagulator. The advanced rigidity occurred on the fore limb with awaking from the ethyl ether anesthesia. The drugs [A; (E)-N-cyclopropyl-3-(3-chlorophenyl)-2-butenamide, B; (E)-N-cyclopropyl-3-(3-fluorophenyl)-2-butenamide, and C; cinflumide] dissolved in polyethylene glycol 400 were each administered intravenously in the amount of 5 mg/kg or 10 mg/kg (0.1 ml per 100 g of rat) to determine the inhibition time of the rigidity.

[4] = Acute toxicity test; format: in vivo, male ICR mice; settings: mouse
Method: Experiment 5 [Acute toxicity test]
Ten male ICR mice weighing 25 to 34 g were used. (E)-N-cyclopropyl-3-(3-chlorophenyl)-2-butenamide suspended in 0.4% aqueous carboxymethylcellulose solution was each administered orally to mice in the amount of 0.1 ml per 10 g of mice. […] The LD50 values were more than 1 g/kg p.o.

[5] = test system: Straub tail reaction; assay: Straub tail reaction (morphine-induced); format: in vivo, male ICR mice; settings: mouse, morphine hydrochloride 15 mg/kg s.c.
Method: Experiment 3 [Straub tail reaction]
Test was carried out according to the method of Ellis et al [Neuropharmacology, vol. 13, page 211 to (1974)].
Six male ICR mice weighing 20-30 g were used as the animals for each group. The drugs [A; (E)-N-cyclopropyl-3-(3-chlorophenyl)-2-butenamide, and C; cinflumide] suspended in 0.4% aqueous carboxymethylcellulose solution were each administered orally to the animals in the amounts of 50, 70.7, 100 and 140 mg/kg (0.1 ml per 10 g of mouse). After 15 minutes, 15 mg/kg of morphine hydrochloride were administered subcutaneously. After 30 minutes, the tail-raising reaction was determined. The muscle relaxation activity was judged as positive in case where the drug produces the value of less than 45 degrees of the tail-raising's angle, and the inhibition rate was culculated.

[6] = J. Med. Chem., vol. 9 (No. 5), 675-681 (1966); cited from earlier work
[7] = Japanese Patent Publication No. 60-56700; among known cinnamamide derivatives; cited from earlier work
[8] = 70.7 mg/kg p.o., control of A 2116.0 ± 256.6, of B 2128.7 ± 228.0
[9] = 5 mg/kg i.v., in propylene glycol
[10] = 10 mg/kg i.v., in propylene glycol
[11] = 50 mg/kg i.d., in 0.4% aqueous carboxymethylcellulose
[12] = 50 mg/kg (head: i.v.; text: orally)
[13] = 70.7 mg/kg (head: i.v.; text: orally)
[14] = 100 mg/kg (head: i.v.; text: orally)
[15] = 140 mg/kg (head: i.v.; text: orally)

SMILES	Spontaneous motor activity [1, 8] [Counts/30 minutes]	Spontaneous motor activity ([1]; 100 mg/kg p.o., control of B 2128.7 ± 228.0) [Counts/30 minutes]	length of time during which the inhibition action occurs (inhibition time of the rigidity) [2, 9] [min]	length of time during which the inhibition action occurs (inhibition time of the rigidity) [2, 10] [min]	length of time during which the inhibition action occurs (inhibition time of the rigidity) [2, 11] [min]	length of time during which the inhibition occurs (inhibition time of the rigidity) ([3]; 5 mg/kg i.v.) [min]	length of time during which the inhibition occurs (inhibition time of the rigidity) ([3]; 10 mg/kg i.v.) [min]	Spontaneous motor activity ([1]; 50 mg/kg p.o., control of A 2116.0 ± 256.6) [Counts/30 minutes]	death (survivals observed for 7 days) ([4]; 1 g/kg p.o.)	LD50 at 168 h ([4]; in vivo, po) [mg/kg]	inhibition rate (Straub tail reaction) [5, 12] [%]	inhibition rate (Straub tail reaction) [5, 13] [%]	inhibition rate (Straub tail reaction) [5, 14] [%]	inhibition rate (Straub tail reaction) [5, 15] [%]	sedative or taming action [6]	muscle relaxing activity [7]
C/C(=C\C(=O)NC1CC1)c1cccc(F)c1 [B, (E)-N-cyclopropyl-3-(3-fluorophenyl)-2-butenamide]	2264.2 ± 506.0	1667.8 ± 152.4	6	12	53	8	12									
C/C(=C\C(=O)NC1CC1)c1cccc(Cl)c1 [A, (E)-N-cyclopropyl-3-(3-chlorophenyl)-2-butenamide]	1570.2 ± 326.9		13	37	36	9	13	1736.0 ± 366.6	no death occurred	> 1000	40	40	100	100	showing sedative or taming action	
O=C(/C=C/c1cccc(F)c1)NC1CC1 [C, cinflumide, reference compound]			0	3	0		8				0	20	80	100		most preferred effect
